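Five concentrations, 48 hours, 96-well plates. Abbreviation: GI50, concentration required for 50% inhibition of growth.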 Calls of active or inactive are those of the source. Rule as the data show it: active = GI50 up to about 1.1 µM and inactive = higher.

Test systems include HOP-62; UACC-62; MCF7; NCI-H226; SF-295; TK-10; UACC-257; SF-268; 786-0; T47D; HL-60; CAKI-1; MDA-N; Malme-3M; NCI-H460; SK-MEL-5; UO-31; SN12C; NCI-H522; SK-MEL-28.
Experiment in all cases: inhibition of tumour cell growth, NCI panel, 48 h

For `CC1OC(=O)C2CC3CCCCC3C(/C=C/C3CCCC(C)N3C)C12` (stereo not given), the GI50 is > 100 µM (inactive) with HOP-62; > 100 µM (inactive) in the assay with UACC-62; 90.8 µM (inactive) in the assay with MCF7; > 100 µM (inactive) with NCI-H226; 63.1 µM (inactive) in the assay with SF-295; > 100 µM (inactive) with TK-10. Moreover, the GI50 with UACC-257, in the assay with SF-268, in the assay with 786-0, in the assay on T47D, with HL-60 and with CAKI-1 was > 100 µM (inactive) each time. Also, the GI50 in the assay with MDA-N was > 100 µM (inactive); with Malme-3M, > 100 µM (inactive); in the assay with NCI-H460 it was > 100 µM (inactive); in the assay on SK-MEL-5 it was 94.6 µM (inactive); with UO-31, > 100 µM (inactive); in the assay with SN12C it was > 100 µM (inactive). The GI50 with NCI-H522 and in the assay with SK-MEL-28 was > 100 µM (inactive) throughout.

With `N=C(N)NS(=O)(=O)c1ccc(NC(=O)c2ccc3nc4ccccc4c(Nc4ccc(S(N)(=O)=O)cc4)c3c2)cc1`, the GI50 in the assay with HOP-62, with UACC-62, in the assay with MCF7, in the assay on NCI-H226, in the assay on SF-295 and in the assay with TK-10 was > 100 µM (inactive) each time. Moreover, the GI50 in the assay on UACC-257, in the assay with SF-268, in the assay on 786-0, in the assay on T47D, in the assay on HL-60 and in the assay on CAKI-1 was > 100 µM (inactive) in each case. For the same compound, the GI50 in the assay on MDA-N, with Malme-3M, with NCI-H460, in the assay with SK-MEL-5, in the assay on UO-31 and in the assay with SN12C was > 100 µM (inactive) each time. The GI50 with NCI-H522 and with SK-MEL-28 was > 100 µM (inactive) throughout.

In the case of `CCCC(CCC)C(=O)O` [VALPROIC ACID], the GI50 in the assay with HOP-62 is > 100 µM (inactive); in the assay on UACC-62 it was 8810 µM (inactive); in the assay on MCF7, 6580 µM (inactive); with NCI-H226, > 100 µM (inactive); in the assay with SF-295, 7760 µM (inactive); in the assay on TK-10 it was 8240 µM (inactive). Further, the GI50 was 4530 µM (inactive) in the assay with UACC-257; 2140 µM (inactive) with SF-268; > 100 µM (inactive) in the assay on 786-0; 7520 µM (inactive) in the assay with T47D; 10300 µM (inactive) with HL-60; 7480 µM (inactive) in the assay on CAKI-1. For the same compound, the GI50 in the assay on MDA-N was > 100 µM (inactive); in the assay with Malme-3M it was 4400 µM (inactive); in the assay with NCI-H460, 4310 µM (inactive); in the assay on SK-MEL-5, 2740 µM (inactive); with UO-31, 6280 µM (inactive); in the assay on SN12C it was > 100 µM (inactive). Moreover, the GI50 with NCI-H522 was 3240 µM (inactive); in the assay on SK-MEL-28, > 100 µM (inactive).

Take `CCCCCCCCCCCC[S+](C)C`: the GI50 was 0.665 µM (active) with HOP-62; 6.4 µM (inactive) in the assay with UACC-62; 9.02 µM (inactive) in the assay with MCF7; 1.77 µM (inactive) in the assay with NCI-H226; 5.87 µM (inactive) with SF-295; 3.15 µM (inactive) in the assay with TK-10. The GI50 with UACC-257 was 4.18 µM (inactive); with SF-268, 6.68 µM (inactive); in the assay on 786-0 it was 1.69 µM (inactive); in the assay on T47D it was 0.516 µM (active); in the assay with HL-60 it was 3.01 µM (inactive); with CAKI-1 it was 1.57 µM (inactive). The GI50 with MDA-N was 1.23 µM (inactive); in the assay with Malme-3M, 8.38 µM (inactive); with NCI-H460 it was 9.4 µM (inactive); with SK-MEL-5 it was 3.17 µM (inactive); in the assay with UO-31 it was 10.1 µM (inactive); in the assay with SN12C it was 3.88 µM (inactive). Further, the GI50 with NCI-H522 is 3.7 µM (inactive); in the assay with SK-MEL-28, 10.5 µM (inactive).

The values are drawn from ChEMBL document CHEMBL1201862, “PubChem BioAssay data set” (2004).
